Assay results as given in ChEMBL document CHEMBL1201862, “PubChem BioAssay data set” (2004).
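Compound exposure: 48 hours, 5 concentrations, 96-well plates. The concentration for 50% growth inhibition is given as GI50.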 The source made the active and inactive calls. No stated cut-off is given here; in the data, active = GI50 up to about 1.1 µM and inactive = higher.

Assays:
Test in all cases: NCI-60 cell line screen, 48 h
SNB-75 = system: SNB-75
K562 = system: K562
DU-145 = system: DU-145
MCF7 = system: MCF7
IGROV-1 = system: IGROV-1
HT-29 = system: HT-29
OVCAR-5 = system: OVCAR-5
TK-10 = system: TK-10
HCC 2998 = system: HCC 2998
OVCAR-3 = system: OVCAR-3
Hs-578T = system: Hs-578T
UO-31 = system: UO-31
UACC-62 = system: UACC-62
NCI-H23 = system: NCI-H23
NCI/ADR-RES = system: NCI/ADR-RES
A549 = system: A549
NCI-H460 = system: NCI-H460
Malme-3M = system: Malme-3M
CCRF-CEM = system: CCRF-CEM

Measured: GI50

Sc1nc2c(c(-c3nc(S)nc4c3CCCCCCCCCC4)n1)CCCCCCCCCC2
inactive: SNB-75 > 100 µM | K562 > 100 µM | DU-145 > 100 µM | MCF7 > 100 µM | IGROV-1 > 100 µM | HT-29 > 100 µM | OVCAR-5 > 100 µM | TK-10 > 100 µM | HCC 2998 > 100 µM | OVCAR-3 > 100 µM | Hs-578T > 100 µM | UO-31 > 100 µM | UACC-62 > 100 µM | NCI-H23 > 100 µM | NCI/ADR-RES > 100 µM | A549 > 100 µM | NCI-H460 > 100 µM | Malme-3M > 100 µM

COc1ccc2c(c1)CCCN1CCc3ccccc3C21 (stereo unspecified)
inactive: SNB-75 16.4 µM | K562 45.7 µM | DU-145 > 100 µM | MCF7 69.7 µM | IGROV-1 50 µM | HT-29 33.3 µM | OVCAR-5 70.3 µM | TK-10 43.1 µM | HCC 2998 69 µM | OVCAR-3 30.2 µM | Hs-578T 35.7 µM | UACC-62 32.5 µM | NCI-H23 35.7 µM | CCRF-CEM 26.1 µM | NCI/ADR-RES 16.8 µM | A549 37.3 µM | NCI-H460 56.1 µM | Malme-3M 37.2 µM

COC(=O)[C@H]1C[C@H]1NC(=O)C(CC(=O)OCc1ccccc1)NC(=O)OCc1ccccc1 (stereo partly specified)
inactive: SNB-75 36.2 µM | K562 59.7 µM | DU-145 73.5 µM | MCF7 44.1 µM | IGROV-1 52.1 µM | HT-29 39 µM | OVCAR-5 > 100 µM | TK-10 74.6 µM | HCC 2998 88.3 µM | Hs-578T > 100 µM | NCI-H23 41.8 µM | CCRF-CEM 31.6 µM | NCI/ADR-RES 28.3 µM | A549 43.8 µM | NCI-H460 31.2 µM

CC(C)(C)N/N=C(/Cc1nc2c3c(ccc2nc1O)C(=O)c1ccccc1C3=O)C(=O)NC1=C(Cl)C(=O)c2ccccc2C1=O
inactive: SNB-75 2.38 µM | K562 85.3 µM | DU-145 21.8 µM | MCF7 20 µM | IGROV-1 5.14 µM | HT-29 13.6 µM | OVCAR-5 > 100 µM | HCC 2998 17.9 µM | OVCAR-3 13.9 µM | Hs-578T 24.7 µM | UO-31 4.91 µM | UACC-62 21.2 µM | NCI-H23 42.1 µM | CCRF-CEM 14.4 µM | NCI/ADR-RES 5.77 µM | A549 18.3 µM | NCI-H460 5.42 µM | Malme-3M 12.3 µM

O=C(NCCCCNCCCNC(=O)C(F)(F)F)C(F)(F)F
inactive: SNB-75 > 100 µM | K562 > 100 µM | DU-145 > 100 µM | MCF7 > 100 µM | IGROV-1 > 100 µM | HT-29 > 100 µM | OVCAR-5 > 100 µM | TK-10 > 100 µM | HCC 2998 > 100 µM | OVCAR-3 > 100 µM | Hs-578T > 100 µM | UO-31 > 100 µM | UACC-62 > 100 µM | NCI-H23 > 100 µM | CCRF-CEM > 100 µM | NCI/ADR-RES > 100 µM | A549 > 100 µM | NCI-H460 > 100 µM

CN(C)CCCN1c2ccccc2CCc2cc([N+](=O)[O-])ccc21
inactive: SNB-75 12.9 µM | K562 16.9 µM | DU-145 18.2 µM | MCF7 16.8 µM | IGROV-1 15.6 µM | HT-29 15.3 µM | OVCAR-5 16.5 µM | TK-10 14.6 µM | HCC 2998 12.2 µM | OVCAR-3 17.9 µM | Hs-578T 16.2 µM | UO-31 14.9 µM | UACC-62 14.3 µM | NCI-H23 19 µM | NCI/ADR-RES 17.2 µM | A549 19.9 µM | NCI-H460 15 µM | Malme-3M 17.7 µM

CSC1=Nc2ccccc2-c2nc3ccccc3cc2C1
inactive: K562 > 100 µM | DU-145 > 100 µM | MCF7 > 100 µM | IGROV-1 > 100 µM | HT-29 > 100 µM | OVCAR-5 > 100 µM | TK-10 > 100 µM | HCC 2998 > 100 µM | OVCAR-3 > 100 µM | Hs-578T > 100 µM | UO-31 > 100 µM | UACC-62 > 100 µM | NCI-H23 > 100 µM | CCRF-CEM > 100 µM | NCI/ADR-RES > 100 µM | A549 > 100 µM | NCI-H460 > 100 µM | Malme-3M > 100 µM

COc1ccc(/N=c2/oc3ccccc3cc2C(N)=O)cc1
inactive: SNB-75 36.6 µM | K562 > 100 µM | DU-145 > 100 µM | MCF7 22.5 µM | IGROV-1 24.5 µM | HT-29 > 100 µM | TK-10 22.5 µM | HCC 2998 > 100 µM | OVCAR-3 > 100 µM | Hs-578T 18.7 µM | UO-31 2.33 µM | UACC-62 34.8 µM | NCI-H23 29.8 µM | CCRF-CEM > 100 µM | NCI/ADR-RES 39 µM | A549 42 µM | NCI-H460 > 100 µM

CCOC(=O)C1=NNC(C(=O)c2ccccc2)C1c1ccccc1 (stereo unspecified)
inactive: SNB-75 5.7 µM | K562 1.47 µM | DU-145 13.2 µM | MCF7 1.91 µM | IGROV-1 4.6 µM | HT-29 2.28 µM | OVCAR-5 6.47 µM | TK-10 2.25 µM | HCC 2998 1.96 µM | OVCAR-3 3.42 µM | Hs-578T 4.12 µM | UO-31 2.01 µM | UACC-62 3.18 µM | NCI-H23 2.42 µM | CCRF-CEM 1.64 µM | NCI/ADR-RES 4.35 µM | A549 19.1 µM | Malme-3M 2.19 µM

COc1ccc2nc3n(c2c1)CCc1cc(OC)c(OC)cc1-3
inactive: SNB-75 40.7 µM | K562 37.9 µM | DU-145 83.8 µM | MCF7 42.5 µM | HT-29 26.7 µM | OVCAR-5 > 100 µM | TK-10 86.3 µM | HCC 2998 26 µM | OVCAR-3 46.7 µM | Hs-578T 85.7 µM | UACC-62 32.3 µM | NCI-H23 40.1 µM | CCRF-CEM 49.1 µM | NCI/ADR-RES 45.2 µM | A549 44.5 µM | NCI-H460 50.5 µM | Malme-3M 91 µM

Cc1nc2ccccc2c(=O)n1/N=C/c1ccc(N(C)C)cc1
inactive: SNB-75 15.4 µM | DU-145 > 100 µM | MCF7 > 100 µM | IGROV-1 > 100 µM | HT-29 > 100 µM | OVCAR-5 > 100 µM | TK-10 > 100 µM | HCC 2998 > 100 µM | OVCAR-3 > 100 µM | Hs-578T 15.3 µM | UACC-62 71.8 µM | NCI-H23 78 µM | CCRF-CEM > 100 µM | NCI/ADR-RES 86.9 µM | A549 > 100 µM | NCI-H460 > 100 µM | Malme-3M > 100 µM

Cc1cc2c3c(ccc4[nH]cc(c43)CN2c2ccc(NS(C)(=O)=O)cc2)n1
inactive: SNB-75 16.9 µM | K562 90.6 µM | DU-145 49.1 µM | MCF7 65 µM | IGROV-1 48.4 µM | HT-29 > 100 µM | OVCAR-5 > 100 µM | TK-10 26.2 µM | HCC 2998 30.2 µM | OVCAR-3 21.2 µM | Hs-578T > 100 µM | UO-31 12.7 µM | UACC-62 > 100 µM | NCI-H23 20.8 µM | CCRF-CEM 8.41 µM | NCI/ADR-RES > 100 µM | A549 25.6 µM | NCI-H460 91.6 µM

O=C(O)CSc1nnc(CCCCCCCCc2nnc(SCC(=O)O)o2)o1
inactive: SNB-75 21.9 µM | K562 > 100 µM | DU-145 > 100 µM | MCF7 > 100 µM | IGROV-1 > 100 µM | HT-29 > 100 µM | OVCAR-5 > 100 µM | TK-10 > 100 µM | HCC 2998 > 100 µM | Hs-578T 82.2 µM | UO-31 > 100 µM | UACC-62 > 100 µM | NCI-H23 > 100 µM | CCRF-CEM > 100 µM | NCI/ADR-RES > 100 µM | A549 > 100 µM | NCI-H460 > 100 µM | Malme-3M > 100 µM

O=[N+]([O-])c1cc(F)ccc1S(=O)(=O)c1ccccc1
inactive: SNB-75 > 10 µM | K562 > 10 µM | DU-145 > 10 µM | MCF7 > 10 µM | IGROV-1 > 10 µM | HT-29 > 10 µM | OVCAR-5 > 10 µM | TK-10 > 10 µM | HCC 2998 > 10 µM | OVCAR-3 > 10 µM | Hs-578T > 10 µM | UACC-62 > 10 µM | NCI-H23 > 10 µM | CCRF-CEM > 10 µM | NCI/ADR-RES > 10 µM | A549 > 10 µM | NCI-H460 > 10 µM | Malme-3M > 10 µM

CCCCCCCCCCCCCCCCCC(=O)OCC(COC1OC(CS(=O)(=O)O)C(O)C(O)C1O)OC(=O)CCCCCCCCCCCCCCCCC (stereo unspecified)
inactive: SNB-75 10.4 µM | K562 > 100 µM | DU-145 > 100 µM | MCF7 > 100 µM | IGROV-1 > 100 µM | HT-29 > 100 µM | OVCAR-5 > 100 µM | TK-10 > 100 µM | HCC 2998 > 100 µM | OVCAR-3 > 100 µM | Hs-578T > 100 µM | UACC-62 > 100 µM | NCI-H23 > 100 µM | CCRF-CEM > 100 µM | NCI/ADR-RES > 100 µM | A549 > 100 µM | NCI-H460 > 100 µM | Malme-3M > 100 µM

CC(=O)C1C(=O)C(=O)N(c2ccc([N+](=O)[O-])cc2)C1=O (stereo unspecified)
inactive: SNB-75 > 100 µM | DU-145 > 100 µM | MCF7 > 100 µM | IGROV-1 > 100 µM | HT-29 > 100 µM | OVCAR-5 > 100 µM | TK-10 > 100 µM | HCC 2998 > 100 µM | OVCAR-3 > 100 µM | Hs-578T > 100 µM | UO-31 > 100 µM | UACC-62 > 100 µM | NCI-H23 > 100 µM | CCRF-CEM > 100 µM | NCI/ADR-RES > 100 µM | A549 80.4 µM | NCI-H460 > 100 µM
